Where a SMILES comes first, the peptide text is derived from it. Side-chain parts run from the residue outwards. [ ]: non-standard residue; d: D form. The star is where a group is joined. Cbz = O=C(OCc1ccccc1)*
Test system: Pancreatic juice secretion of the rat
Assay: Pancreatic juice secretion of the rat after subcutaneous administration of secretin with depot bodies
Format: in vivo
Settings: for Δ% vs. control (percentage by which the pancreatic secretion is above the basal secretion after 5 hours) / Rel. Intensity of effect over 5 hours (total pancreatic juice secretion over 5 hours as compared with control): rat, subcutaneous, 5 CU/kg secretin + 10 mg depot body/animal; for Δ% vs. control (percentage by which the pancreatic secretion is above the basal secretion after 5 hours): control=100%, measure of depot effect; for Rel. Intensity of effect over 5 hours (total pancreatic juice secretion over 5 hours as compared with control): control (0.9% of NaCl)=1
Procedure: Secretin preparations for subcutaneous application which contained the depot bodies specified in the following Table were tested in animal experiments. In the experimental procedure chosen, 5 to 8 male rats weighing 300 to 500 g each are administered subcutaneously 5 CU/kg of secretin (CU means clinical unit) and 10 mg of the depot body to be tested each in aqueous solution or suspension.
The animals remain without food for 18 hours prior to the test, but they are given water ad libitum. Under urethane anaesthesia (5 ml/kg i.m. of 25% urethane) the abdomen is opened by median section after tracheotomy, and the pylorus is ligated. The ductus choledochus is tied off in its proximal part near the porta hepatis, and the bile is led into the duodenum via a polyethylene tube of a diameter of […]. A cannula or catheter is inserted into the distal part of the bile duct, into which the numerous pancreatic ducts open, immediately before it opens into the duodenum, and the volume of the secretion running off is measured in 60 minute intervals. Following a preliminary run of 60 minutes the preparations are administered.
L means the compound known from literature and characterized by the melting point, optionally UV, IR or NMR. A to C relate to the preparation according to Example 1, process A to C. These compounds were characterized by ultimate analysis. The third column indicates the percentage by which the pancreatic secretion is above the basal secretion after 5 hours (calculated on the control=100%). This value is a measure for the depot effect of the depot body tested. Column 4 indicates the intensification of the secretin effect, with the total pancreatic juice secretion having been given over 5 hours as compared with the control (0.9% of NaCl)=1.

With `O=C(NCCNC(=O)c1ccc(O)cc1O)c1ccc(O)cc1O` [Bis-(2,4-dihydroxybenzoyl-)-diaminoethane] the “Δ% vs. control (percentage by which the pancreatic secretion is above the basal secretion after 5 hours)” value was 69% and the “Rel. Intensity of effect over 5 hours (total pancreatic juice secretion over 5 hours as compared with control)” value was 6.5.
`O=C(N[C@@H](Cc1ccc(O)cc1)C(=O)NCCCC[C@H](NC(=O)[C@H](Cc1ccc(O)cc1)NC(=O)c1cc(O)cc(O)c1)C(=O)N(CCO)CCO)c1cc(O)cc(O)c1` [Nα,Nε-Bis(3,5-dihydroxybenzoyl-L-tyrosyl)-L-lysine-diethanol-amide] was tested, and the “Δ% vs. control (percentage by which the pancreatic secretion is above the basal secretion after 5 hours)” value was 86% and the “Rel. Intensity of effect over 5 hours (total pancreatic juice secretion over 5 hours as compared with control)” value was 8.8.
`O=C(N[C@@H](Cc1ccc(O)cc1)C(=O)NCCCC[C@@H](NC(=O)[C@H](Cc1ccc(O)cc1)NC(=O)OCc1ccccc1)C(=O)O)OCc1ccccc1` [Nα,Nε-Bis-(benzyloxycarbonyl-L-tyrosyl)-D-lysine] (Cbz-Tyr-[dK]([Tyr-Cbz])-OH) was tested, and the “Δ% vs. control (percentage by which the pancreatic secretion is above the basal secretion after 5 hours)” value was 13% and the “Rel. Intensity of effect over 5 hours (total pancreatic juice secretion over 5 hours as compared with control)” value was 1.5.
`NC(=O)[C@H](CCCCNC(=O)[C@H](Cc1ccc(O)cc1)NC(=O)OCc1ccccc1)NC(=O)[C@H](Cc1ccc(O)cc1)NC(=O)OCc1ccccc1` [Nα,Nε-Bis-(benzyloxycarbonyl-L-tyrosyl)-L-lysine-amide] (Cbz-Tyr-Lys([Tyr-Cbz])-NH2) was tested, and the “Δ% vs. control (percentage by which the pancreatic secretion is above the basal secretion after 5 hours)” value was 90% and the “Rel. Intensity of effect over 5 hours (total pancreatic juice secretion over 5 hours as compared with control)” value was 8.4.
In the case of `COC(=O)[C@H](CCCCNC(=O)[C@H](Cc1ccc(O)cc1)NC(=O)OCc1ccccc1)NC(=O)[C@H](Cc1ccc(O)cc1)NC(=O)OCc1ccccc1` [Nα,Nε-Bis-(benzyloxycarbonyl-L-tyrosyl)-L-lysine-methyl ester] (Cbz-Tyr-Lys([Tyr-Cbz])-OMe), the “Δ% vs. control (percentage by which the pancreatic secretion is above the basal secretion after 5 hours)” value is reported as 93% and the “Rel. Intensity of effect over 5 hours (total pancreatic juice secretion over 5 hours as compared with control)” value is reported as 8.2.
`O=C(N[C@@H](Cc1ccc(O)cc1)C(=O)NCCCC[C@H](NC(=O)[C@H](Cc1ccc(O)cc1)NC(=O)OCc1ccccc1)C(=O)O)OCc1ccccc1` [Nα,Nε-Bis-(benzyloxycarbonyl-L-tyrosyl)-L-lysine] (Cbz-Tyr-Lys([Tyr-Cbz])-OH) was tested, and the “Δ% vs. control (percentage by which the pancreatic secretion is above the basal secretion after 5 hours)” value was 48% and the “Rel. Intensity of effect over 5 hours (total pancreatic juice secretion over 5 hours as compared with control)” value was 7.0.
For `Oc1ccccc1` [Phenol], the “Δ% vs. control (percentage by which the pancreatic secretion is above the basal secretion after 5 hours)” value was 51%, the “Rel. Intensity of effect over 5 hours (total pancreatic juice secretion over 5 hours as compared with control)” value was 8 and the “protracted and intensified action of secretin (in words)” value (subcutaneous secretin preparations with depot body) was “clearly evident”.
In the case of `O=C(CCc1ccc(O)cc1)c1c(O)cc(O)cc1O` [Phloretin], the “Δ% vs. control (percentage by which the pancreatic secretion is above the basal secretion after 5 hours)” value is reported as 180% and the “Rel. Intensity of effect over 5 hours (total pancreatic juice secretion over 5 hours as compared with control)” value is reported as 8.2.
With `Oc1cc(O)cc(O)c1` [Phloroglucine] the “Δ% vs. control (percentage by which the pancreatic secretion is above the basal secretion after 5 hours)” value was 15% and the “Rel. Intensity of effect over 5 hours (total pancreatic juice secretion over 5 hours as compared with control)” value was 6.6.
In the case of `Oc1cccc(O)c1O` [Pyrogallol], the “Δ% vs. control (percentage by which the pancreatic secretion is above the basal secretion after 5 hours)” value is reported as 41% and the “Rel. Intensity of effect over 5 hours (total pancreatic juice secretion over 5 hours as compared with control)” value is reported as 5.1.
With `Oc1cccc(O)c1` [Resorcinol] the “Δ% vs. control (percentage by which the pancreatic secretion is above the basal secretion after 5 hours)” value was 55% and the “Rel. Intensity of effect over 5 hours (total pancreatic juice secretion over 5 hours as compared with control)” value was 6.1.
For `O=C(NCCN(CCN(CCNC(=O)c1c(O)cccc1O)C(=O)c1c(O)cccc1O)C(=O)c1c(O)cccc1O)c1c(O)cccc1O` [Tetra-(2,6-dihydroxybenzoyl)-triethylene-tetramine], the “Δ% vs. control (percentage by which the pancreatic secretion is above the basal secretion after 5 hours)” value was 78% and the “Rel. Intensity of effect over 5 hours (total pancreatic juice secretion over 5 hours as compared with control)” value was 8.1.
For `O=C(NCCN(CCN(CCNC(=O)c1ccccc1O)C(=O)c1ccccc1O)C(=O)c1ccccc1O)c1ccccc1O` [Tetra-(2-hydroxybenzoyl)-triethylene-tetramine], the “Δ% vs. control (percentage by which the pancreatic secretion is above the basal secretion after 5 hours)” value was 91% and the “Rel. Intensity of effect over 5 hours (total pancreatic juice secretion over 5 hours as compared with control)” value was 9.0.
`O=C(NCCN(CCN(CCNC(=O)c1cc(O)cc(O)c1)C(=O)c1cc(O)cc(O)c1)C(=O)c1cc(O)cc(O)c1)c1cc(O)cc(O)c1` [Tetra-(3,5-dihydroxybenzoyl)-triethylene-tetramine] was tested, and the “Δ% vs. control (percentage by which the pancreatic secretion is above the basal secretion after 5 hours)” value was 101% and the “Rel. Intensity of effect over 5 hours (total pancreatic juice secretion over 5 hours as compared with control)” value was 9.7.
In the case of `O=C(N[C@@H](Cc1ccc(O)cc1)C(=O)NCCN(CCN(CCNC(=O)[C@H](Cc1ccc(O)cc1)NC(=O)c1cc(O)cc(O)c1)C(=O)[C@H](Cc1ccc(O)cc1)NC(=O)c1cc(O)cc(O)c1)C(=O)[C@H](Cc1ccc(O)cc1)NC(=O)c1cc(O)cc(O)c1)c1cc(O)cc(O)c1` [Tetra-(3,5-dihydroxybenzoyl-L-tyrosyl)-triethylene-tetramine], the “Δ% vs. control (percentage by which the pancreatic secretion is above the basal secretion after 5 hours)” value is reported as 98% and the “Rel. Intensity of effect over 5 hours (total pancreatic juice secretion over 5 hours as compared with control)” value is reported as 9.5.
In the case of `O=C(NCCN(CCN(CCNC(=O)c1cccc(O)c1)C(=O)c1cccc(O)c1)C(=O)c1cccc(O)c1)c1cccc(O)c1` [Tetra-(3-hydroxybenzoyl-)triethylene-tetramine], the “Δ% vs. control (percentage by which the pancreatic secretion is above the basal secretion after 5 hours)” value is reported as 95% and the “Rel. Intensity of effect over 5 hours (total pancreatic juice secretion over 5 hours as compared with control)” value is reported as 9.1.
For `O=C(NCCN(CCNC(=O)c1cc(O)cc(O)c1)C(=O)c1cc(O)cc(O)c1)c1cc(O)cc(O)c1` [Tris-(3,5-dihydroxybenzoyl-diethylene-triamine], the “Δ% vs. control (percentage by which the pancreatic secretion is above the basal secretion after 5 hours)” value was 79% and the “Rel. Intensity of effect over 5 hours (total pancreatic juice secretion over 5 hours as compared with control)” value was 8.6.
With “Bis-(2,4-dihydroxybenzoyl)-1,4-diaminobutane” the “Δ% vs. control (percentage by which the pancreatic secretion is above the basal secretion after 5 hours)” value was 83% and the “Rel. Intensity of effect over 5 hours (total pancreatic juice secretion over 5 hours as compared with control)” value was 6.7.
For “Bis-(2,4-dihydroxybenzoyl-L-tyrosine)-diaminoethane”, the “Δ% vs. control (percentage by which the pancreatic secretion is above the basal secretion after 5 hours)” value was 82% and the “Rel. Intensity of effect over 5 hours (total pancreatic juice secretion over 5 hours as compared with control)” value was 6.0.
With “Bis-(2-carboxybenzoyl-L-tyrosine)-diaminoethane” the “Δ% vs. control (percentage by which the pancreatic secretion is above the basal secretion after 5 hours)” value was 48% and the “Rel. Intensity of effect over 5 hours (total pancreatic juice secretion over 5 hours as compared with control)” value was 6.3.
Bis-(2-hydroxybenzoyl)-diaminoethane was tested, and the “Δ% vs. control (percentage by which the pancreatic secretion is above the basal secretion after 5 hours)” value was 72% and the “Rel. Intensity of effect over 5 hours (total pancreatic juice secretion over 5 hours as compared with control)” value was 5.9.
For “Bis-(3,5-dihydroxybenzoyl)-1,4-diaminobutane”, the “Δ% vs. control (percentage by which the pancreatic secretion is above the basal secretion after 5 hours)” value was 85% and the “Rel. Intensity of effect over 5 hours (total pancreatic juice secretion over 5 hours as compared with control)” value was 7.4.
For “Bis-(3,5-dihydroxybenzoyl)-diaminoethane”, the “Δ% vs. control (percentage by which the pancreatic secretion is above the basal secretion after 5 hours)” value was 79% and the “Rel. Intensity of effect over 5 hours (total pancreatic juice secretion over 5 hours as compared with control)” value was 6.1.
“Bis-(3,5-dihydroxybenzoyl-L-tyrosine)-diaminoethane” was tested, and the “Δ% vs. control (percentage by which the pancreatic secretion is above the basal secretion after 5 hours)” value was 58% and the “Rel. Intensity of effect over 5 hours (total pancreatic juice secretion over 5 hours as compared with control)” value was 7.0.
In the case of “Bis-(3-benzoylpropionyl-L-tyrosine)-diaminoethane”, the “Δ% vs. control (percentage by which the pancreatic secretion is above the basal secretion after 5 hours)” value is reported as 60% and the “Rel. Intensity of effect over 5 hours (total pancreatic juice secretion over 5 hours as compared with control)” value is reported as 3.7.
For “Bis-(benzyloxycarbonyl-L-tyrosine)-diaminoethane”, the “Δ% vs. control (percentage by which the pancreatic secretion is above the basal secretion after 5 hours)” value was 44% and the “Rel. Intensity of effect over 5 hours (total pancreatic juice secretion over 5 hours as compared with control)” value was 5.5.
Bis-phloretin phosphate was tested, and the “Δ% vs. control (percentage by which the pancreatic secretion is above the basal secretion after 5 hours)” value was 56% and the “Rel. Intensity of effect over 5 hours (total pancreatic juice secretion over 5 hours as compared with control)” value was 2.5.
Phloretin-3,5-dimethylphenyl phosphate was tested, and the “Δ% vs. control (percentage by which the pancreatic secretion is above the basal secretion after 5 hours)” value was 68% and the “Rel. Intensity of effect over 5 hours (total pancreatic juice secretion over 5 hours as compared with control)” value was 3.7.
For “Tris-(2,8-dihydroxy-3-naphthoyl)-diethylene-triamine”, the “Δ% vs. control (percentage by which the pancreatic secretion is above the basal secretion after 5 hours)” value was 94% and the “Rel. Intensity of effect over 5 hours (total pancreatic juice secretion over 5 hours as compared with control)” value was 9.4.
“Tris-(2-hydroxybenzoyl)-diethylene-triamine” was tested, and the “Δ% vs. control (percentage by which the pancreatic secretion is above the basal secretion after 5 hours)” value was 62% and the “Rel. Intensity of effect over 5 hours (total pancreatic juice secretion over 5 hours as compared with control)” value was 8.1.
“Tris-(3-hydroxybenzoyl)-diethylene-triamine” was tested, and the “Δ% vs. control (percentage by which the pancreatic secretion is above the basal secretion after 5 hours)” value was 71% and the “Rel. Intensity of effect over 5 hours (total pancreatic juice secretion over 5 hours as compared with control)” value was 8.0.
With “Tris-(4-hydroxybenzoyl)-diethylene-triamine” the “Δ% vs. control (percentage by which the pancreatic secretion is above the basal secretion after 5 hours)” value was 68% and the “Rel. Intensity of effect over 5 hours (total pancreatic juice secretion over 5 hours as compared with control)” value was 7.8.
